Patent US20190367520A1, “NEW COMPOUND HAVING FGFR INHIBITORY ACTIVITY AND PREPARATION AND APPLICATION THEREOF” (SHANGHAI INSTITUTE OF MATERIA MEDICA, CHINESE ACADEMY OF …, priority 2016, published 2019)

Columns and labels:
[1] = molecular target: FGFR1 kinase domain recombinant protein (Homo sapiens, UniProt P11362); test: FGFR1 enzyme activity at molecular level (ELISA, Poly(Glu,Tyr) 4:1 substrate)
Procedure: (§1) The plate was placed at 37° C. for 12-16 hours. The liquid in the well was discarded, the plate was washed, and the panel was washed three times with 200 μL/well of T-PBS (PBS containing 0.1% Tween-20) for 5 minutes each time.
(§2) 50 μL of ATP solution diluted with reaction buffer (50 mM HEPES pH 7.4, 50 mM MgCl2, 0.5 mM MnCl2, 0.2 mM Na3VO4, 1 mM DTT) was added to each well to a final concentration of 5 μM. The compound was diluted to a suitable concentration in DMSO, 1 μL/well or containing the corresponding concentration of DMSO (negative control well), and the FGFR1, FGFR4 kinase domain recombinant protein diluted in 49 μL of reaction buffer was added to initiate the reaction. Two control wells without ATP were required for each experiment. The reaction was carried out for 1 hour at 37° C. on a shaker (100 rpm). The plate was washed three times with T-PBS. Primary antibody, PY99 dilution was added at 100 μL/well and shaken at 37° C. for 0.5 hour. The plate was washed three times with T-PBS. Secondary antibody, horseradish peroxidase-labeled goat anti-mouse IgG dilution was added at 100 μL/well, and shaken at 37° C. for 0.5 hour. […] (Ultrasound was required for the dissolution of OPD, and the chromogenic solution needed to be prepared when used). 2 M H2SO4 was added at 50 μL/well to quench the reaction and a tunable wavelength microplate reader SPECTRA MAX 190 was used at a wavelength of 490 nm.
(§3) The inhibition rate of the sample was obtained by the following formula:
(§4) The IC50 value was obtained by four-parameter regression using the software attached to the microplate reader.

[2] = test system: SNU16 cells; test: SNU16 cell proliferation (CCK-8, 72 h); format: cell-based; conditions: Homo sapiens, SNU-16, read-out: SNU16 (IC50 class)
Procedure: The inhibitory effect of the compound on SNU16 cells proliferation was examined by CCK-8 Cell Counting Kit (Dojindo). The specific steps are as follows: SNU16 cells in logarithmic growth phase were inoculated into a 96-well culture plate at a suitable density, 90 μL per well, and cultured overnight, different concentrations of compounds were added for 72 hr, and the solvent control group was set (negative control). After the cells were treated by the compound for 72 h, the effect of the compound on cell proliferation was detected by CCK-8 cell counting kit (Dojindo). 10 μL of CCK-8 reagent was added to each well and placed in a 37° C. incubator for 2-4 hours. The full-wavelength microplate reader SpectraMax 190 was used at a measure wavelength of 450 nm.

[3] = molecular target: FGFR4 kinase domain recombinant protein (Homo sapiens, UniProt P22455); test: FGFR4 enzyme activity at molecular level (ELISA, Poly(Glu,Tyr) 4:1 substrate)
Sequence of FGFR4 kinase domain recombinant protein (P22455 467-755 limits assumed): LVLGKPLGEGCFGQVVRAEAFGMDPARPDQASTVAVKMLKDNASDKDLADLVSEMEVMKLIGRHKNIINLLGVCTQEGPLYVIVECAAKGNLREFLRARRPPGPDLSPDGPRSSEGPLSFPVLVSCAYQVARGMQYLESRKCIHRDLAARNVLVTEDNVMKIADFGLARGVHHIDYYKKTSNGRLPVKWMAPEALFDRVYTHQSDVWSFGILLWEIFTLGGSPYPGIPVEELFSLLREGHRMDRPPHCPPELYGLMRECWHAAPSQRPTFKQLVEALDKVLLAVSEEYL
Procedure: as §1, §2, §3, §4

Sequence of FGFR1 kinase domain recombinant protein (P11362 478-767 limits assumed): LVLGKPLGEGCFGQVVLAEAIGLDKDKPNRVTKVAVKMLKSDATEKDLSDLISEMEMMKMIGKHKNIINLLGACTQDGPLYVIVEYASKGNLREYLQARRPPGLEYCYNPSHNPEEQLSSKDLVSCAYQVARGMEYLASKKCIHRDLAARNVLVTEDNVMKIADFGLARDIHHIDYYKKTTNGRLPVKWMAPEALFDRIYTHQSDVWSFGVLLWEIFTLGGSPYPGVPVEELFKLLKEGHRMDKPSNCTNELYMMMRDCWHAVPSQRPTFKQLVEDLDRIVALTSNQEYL

Row | Compound | IC50 [1] [nM] | IC50 [2] [nM] | IC50 [3] [nM]
1 | C=CC(=O)N1CCC(n2cc(-c3cc4cc(C)cc(OC)c4s3)c3c(N)ncnc32)C1 (stereo not shown) [NO. 1, 1-(3-(4-amino-5-(7-methoxy-5-methylbenzothiophen-2-yl)-7H-pyrrole[2,3-d]pyrimidine-7-yl)pyrrolidine-1-yl)prop-2-en-1-one] | < 10 | < 10 | < 10
2 | C#CC(=O)N1CC[C@H](n2nc(-c3cc4cc(C)cc(OC)c4s3)c3c(N)ncnc32)C1 [NO. 39, (S)-1-(3-(4-amino-3-(7-methoxy-5-methylbenzothiophene-2-yl)1H-pyrazolo[3,4-d]pyrimidine-1-yl)pyrrolidin-yl)prop-2-yn-1-one] | < 10 | > 100 | < 10
3 | C=C(CN1CCOCC1)C(=O)N1CC(n2cc(-c3cc4cc(C)cc(OC)c4s3)c3c(N)ncnc32)C1 [NO. 31, 1-(3-(4-amino-5-(7-methoxy-5-methylbenzothiophene-2-yl)-7H-pyrrole[2,3-d]pyrimidine-7-yl)azetidine-1-yl)-2-(morpholinomethylene)prop-2-en-1-one] | < 10 | < 10 | < 10
4 | C=CC(=O)N1CCC(n2nc(-c3cc4cc(C)cc(OC)c4s3)c3c(N)ncnc32)C1 (stereo not shown) [NO. 2, 1-(3-(4-amino-3-(7-methoxy-5-methylbenzothiophene-2-yl)-1H-pyrazole[3,4-d]pyrimidine-1-yl)pyrrolidine-1-yl)prop-2-en-1-one] | < 10 | < 10 | 10 to 100
5 | COc1cc(C)cc2cc(-c3nn([C@H]4CCN(C(=O)/C=C/CN(C)C)C4)c4ncnc(N)c34)sc12 [NO. 38] | < 10 | < 10 | > 100
6 | C=CC(=O)N1CC(n2nc(-c3cc4cc(C)cc(OC)c4s3)c3c(N)ncnc32)C1 [NO. 26, 1-(3-(4-amino-3-(7-methoxy-5-methylbenzothiophene-2-yl)-1H-pyrazole[3,4-d]pyrimidine-1-yl)azetidine-1-yl)prop-2-en-1-one] | < 10 | > 100 | < 10
7 | C=CS(=O)(=O)N1CC(n2cc(-c3cc4cc(C)cc(OC)c4s3)c3c(N)ncnc32)C1 [NO. 28, 5-(7-methoxy-5-methylbenzothiophene-2-yl)-7-(1-(vinylsulfonyl)azetidine-3-yl)-7H-pyrrole[2,3-d]pyrimidine-4-amine] | < 10 | > 100 | –
8 | C=CC(=O)N1CCC(n2cc(-c3ccc4[nH]c(C)nc4c3)c3c(N)ncnc32)C1 (stereo not shown) [NO. 36, 1-(3-(4-amino-5-(2-methyl-1H-benzimidazol-5-yl)-7H-pyrrole[2,3-d]pyrimidine-7-yl)pyrrolidine-1-yl)prop-2-en-1-one] | 10 to 100 | > 100 | 10 to 100
9 | C#CC(=O)N1CC(n2nc(-c3cc4cc(C)cc(OC)c4s3)c3c(N)ncnc32)C1 [NO. 27] | < 10 | > 100 | 10 to 100
10 | C=C(CN1CCOCC1)C(=O)N1CC[C@H](n2nc(-c3cc4cc(C)cc(OC)c4s3)c3c(N)ncnc32)C1 [NO. 54, (S) 1-(3-(4-amino-3-(7-methoxy-5-methylbenzothiophene-2-yl)-1H-pyrazole[3,4-d]pyrimidine-1-yl)pyrrolidine-1-yl)-2-(morpholinemethylene)prop-2-en-1-one] | < 10 | – | 10 to 100
11 | C=CS(=O)(=O)N1CC[C@H](n2nc(-c3cc4cc(C)cc(OC)c4s3)c3c(N)ncnc32)C1 [NO. 40] | < 10 | > 100 | < 10
12 | C=CC(=O)N1CCC(n2cc(-c3ccoc3)c3c(N)ncnc32)C1 (stereo not shown) [NO. 83, 1-(3-(4-amino-5-(furan-3-yl)-7H-pyrrole [2,3-d]pyrimidine-7-yl)pyrrolidine-1-yl)prop-2-en-1-one] | > 100 | – | > 100
13 | C=C(CN1CCCC1)C(=O)N1CC(n2cc(-c3cc4cc(C)cc(OC)c4s3)c3c(N)ncnc32)C1 [NO. 44, 1-(3-(4-amino-5-(7-methoxy-5-methylbenzothiophene-2-yl)-7H-pyrrole[2,3-d]pyrimidine-7-yl)azetidine-1-yl)-2-(pyrrolidine-1-methylene)prop-2-en-1-one] | < 10 | – | < 10
14 | C=CC(=O)N1CCC(n2cc(-c3cc4cc(C(=O)O)cc(OC)c4s3)c3c(N)ncnc32)C1 (stereo not shown) [NO. 85, 2-(7-(1-acryloylpyrrolidine-3-yl)-4-amino-7H-pyrrole[2,3-d]pyrimidine-5-yl)-7-methoxybenzothiophene-5-formic acid] | > 100 | – | > 100
15 | C=CC(=O)N1CC(n2cc(-c3cc4c(OC)ccc(OC)c4s3)c3c(N)ncnc32)C1 [NO. 41, 1-(3-(4-amino-5-(4,7-dimethoxybenzothiophen-2-yl)-7H-pyrrole[2,3-d]pyrimidine-7-yl)azetidine-1-yl)prop-2-en-1-one] | – | 10 to 100 | –
16 | COc1cc(C)cc2cc(-c3cn(C4CN(C(=O)/C=C/CN(C)C)C4)c4ncnc(N)c34)sc12 [NO. 19, (E)-1-(3-(4-amino-5-(7-methoxy-5-methylbenzothiophene-2-yl)-7H-pyrrole[2,3-d]pyrimidine-7-yl)azetidin-1-yl)-4-(dimethylamino)but-2-en-1-one] | < 10 | – | 10 to 100
17 | COc1cc(C)cc2cc(-c3cn(C4CCN(C(=O)OC(C)(C)C)C4)c4ncnc(N)c34)sc12 (stereo not shown) [NO. 10, tert-butyl 3-(4-amino-5-(7-methoxy-5-methylbenzothiophene-2-yl)-7H-pyrrole[2,3-d]pyrimidine-7-yl) pyrrolidine-1-formate] | 10 to 100 | – | > 100
18 | C=C(CN1CCOCC1)C(=O)N1CC(n2nc(-c3cc4cc(C)cc(OC)c4s3)c3c(N)ncnc32)C1 [NO. 55, 1-(3-(4-amino-3-(7-methoxy-5-methylbenzothiophene-2-yl)-1H-pyrazole[3,4-d]pyrimidin-yl)azetidine-1-yl)-2-(morpholinemethylene)prop-2-en-1-one] | < 10 | – | < 10
19 | C=CC(=O)N1CC[C@H](n2nc(-c3cc4cc(C)cc(OC)c4s3)c3c(N)ncnc32)C1 [NO. 56, (S) 1-(3-(4-amino-3-(7-methoxy-5-methylbenzothiophene-2-yl)-1H-pyrazole[3,4-d]pyrimidine-1-yl)pyrrolidine-1-yl)prop-2-en-1-one] | < 10 | – | < 10
20 | COc1cc(C)cc2cc(-c3cn(CCN4CCOCC4)c4ncnc(N)c34)sc12 [NO. 76, 5-(7-methoxy-5-methylbenzothiophene-2-yl)-7-(2-morpholineethyl)-7H-pyrrole[2,3-d]p yrimidine-4-amine] | 10 to 100 | – | > 100
21 | C=C(F)C(=O)N1CC(n2cc(-c3cc4cc(C)cc(OC)c4s3)c3c(N)ncnc32)C1 [NO. 29] | < 10 | < 10 | 10 to 100
22 | COc1cc(C)cc2cc(-c3nn(C4CCN(C(=O)CCl)C4)c4ncnc(N)c34)sc12 (stereo not shown) [NO. 84, 1-(3-(4-amino-3-(7-methoxy-5-methylbenzothiophene-2-yl)-1H-pyrazole[3,4-d]pyrimidine-1-yl)pyrrolidine-1-yl)-2-chloroethane-1-one] | < 10 | – | > 100
23 | C=CC(=O)N1CCC(n2cc(-c3ccc4c(N)n[nH]c4c3)c3c(N)ncnc32)C1 (stereo not shown) [NO. 80, 1-(3-(4-amino-5-(3-amino-1H-indazol-6-yl)-7H-pyrrole[2,3-d]pyrimidine-7-yl)pyrrolidine-1-yl)prop-2-en-1-one] | > 100 | – | > 100
24 | COc1cc(C)cc2cc(-c3cn(C4CCN(C(=O)/C=C/CN5CCC(O)CC5)C4)c4ncnc(N)c34)sc12 (stereo not shown) [NO. 77, (E)-1-(3-(4-amino-5-(7-methoxy-5-methylbenzothiophene-2-yl)-7H-pyrrole[2,3-d]pyrimidine-7-yl)pyrrolidine-1-yl)-4-(4-hydroxypiperidine-1-yl)but-2-en-1-one] | < 10 | – | 10 to 100
25 | C=CC(=O)NCCn1nc(-c2cc3cc(C)cc(OC)c3s2)c2c(N)ncnc21 [NO. 50, N-(2-(4-amino-3-(7-methoxy-5-methylbenzothiophen-2-yl)-1H-pyrazole[3,4-d]pyrimidine-1-yl)ethyl)acrylamide] | > 100 | – | > 100
26 | C=CC(=O)N1CCC(n2cc(-c3ccncc3)c3c(N)ncnc32)C1 (stereo not shown) [NO. 82, 1-(3-(4-amino-5-(pyridine-4-yl)-7H-pyrrole[2,3-d]pyrimidine-7-yl)pyrrolidine-1-yl)prop-2-en-1-one] | > 100 | – | > 100
27 | COc1cc(C)cc2cc(-c3cn(C4CCN(C(=O)/C=C/CN(C)C(C)C)C4)c4ncnc(N)c34)sc12 (stereo not shown) [NO. 6, (E)1-(3-(4-amino-5-(7-methoxy-5-methylbenzothiophene-2-yl)-7H-pyrrole[2,3-d]pyrimidine-7-yl)pyrrolidine-1-yl)-4-(isopropyl(methyl)amino)but-2-en-1-one] | < 10 | – | 10 to 100
28 | C=C(CN1CCCCC1)C(=O)N1CC[C@H](n2cc(-c3cc4cc(C)cc(OC)c4s3)c3c(N)ncnc32)C1 [NO. 48, (S) 1-(3-(4-amino-5-(7-methoxy-5-methylbenzothiophene-2-yl)-7H-pyrrole[2,3-d]pyrimidine-7-yl)pyrrolidine-1-yl)-2-(piperidine-1-methylene)prop-2-en-1-one] | 10 to 100 | – | < 10
29 | COc1cc(C)cc2cc(-c3cn(C4CN(C(=O)/C=C/CN5CCCC5)C4)c4ncnc(N)c34)sc12 [NO. 17] | < 10 | – | 10 to 100
